From patent US20190192697A1, “CHEMICAL PROBES OF LYSYL OXIDASK-LIKE 2 AND USES THEREOF” (PHARMAKEA, INC., priority 2016, published 2019)
Structures can show the parent of a compound that is named as a salt. Where two headings read alike, the source gives them in different places.

Experiments:
[1] = biological target: T1, LOXL2 (Homo sapiens, UniProt Q9Y4K0); assay: Western-based quantification of free LOXL2 captured with biotinylated LOXL2 inhibitor (Compound 1-1); format: binding; details: pre-incubation with 1-13a 1-2 hrs at 37° C., capture with Compound 1-1
T1 sequence (Q9Y4K0 26-774): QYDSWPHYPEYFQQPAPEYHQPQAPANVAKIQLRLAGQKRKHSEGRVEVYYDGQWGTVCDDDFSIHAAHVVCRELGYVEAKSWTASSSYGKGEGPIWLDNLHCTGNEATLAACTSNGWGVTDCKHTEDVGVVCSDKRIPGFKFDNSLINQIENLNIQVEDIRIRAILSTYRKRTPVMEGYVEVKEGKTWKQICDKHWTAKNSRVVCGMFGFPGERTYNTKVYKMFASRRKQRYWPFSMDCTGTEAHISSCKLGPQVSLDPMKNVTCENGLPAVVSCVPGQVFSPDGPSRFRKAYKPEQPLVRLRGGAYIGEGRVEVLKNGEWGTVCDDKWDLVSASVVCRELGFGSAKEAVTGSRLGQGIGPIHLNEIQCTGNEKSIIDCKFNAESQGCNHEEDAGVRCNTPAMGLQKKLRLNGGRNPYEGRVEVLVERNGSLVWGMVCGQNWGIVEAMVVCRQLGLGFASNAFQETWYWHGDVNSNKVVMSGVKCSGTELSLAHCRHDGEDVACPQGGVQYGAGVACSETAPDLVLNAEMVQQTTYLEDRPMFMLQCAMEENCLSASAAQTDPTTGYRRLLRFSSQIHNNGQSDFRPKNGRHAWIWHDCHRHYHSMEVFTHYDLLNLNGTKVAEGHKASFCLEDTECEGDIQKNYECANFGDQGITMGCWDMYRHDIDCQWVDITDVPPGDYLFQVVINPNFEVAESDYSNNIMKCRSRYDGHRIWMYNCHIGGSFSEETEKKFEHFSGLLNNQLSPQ
Procedure: To quantify LOXL2 using a Western-based assay, a suitable amount of the LOXL2 inhibitor 1-13a, such as 10 or DMSO was pre-incubated with a suitable amount of LOXL2, such as 1 ng, 10 ng, or 100 ng, for a suitable amount of time at an appropriate temperature, such as 1-2 hrs at 37° C. Then an appropriate amount of the biotinylated labeled LOXL2 inhibitor (Compound 1-1), such as 5, was added and was allowed to incubate with the LOXL2 for a suitable amount of time at an appropriate temperature, such as 1 hr at 37° C. Then the biotinylated labeled LOXL2 inhibitor (Compound 1-1)/LOXL2 complex was isolated with Streptavidin coated magnetic beads. After incubation with the streptavidin magnetic beads for an appropriate amount of time, a magnet (for example, DynaMag™-2 Magnet) was used to capture the biotinylated labeled LOXL2 inhibitor (Compound 1-1)/LOXL2 bead bound complex and the supernatant was removed. […]
A Western Blot is then performed with an anti-LOXL2 antibody to quantify the amount of LOXL2 bound to the biotinylated LOXL2 inhibitor (Compound 1-1).

[2] = Plasma drug concentration in healthy human subjects after single oral dose; format: in vivo; details: for concentration at 2 h / concentration at 24 h: both sexes, human, plasma, read-out: Ave plasma Cmpd 2 conc; for concentration at 2 h: 2 hour post-dose
Procedure: The amount of free/unbound LOXL2 was evaluated in 8 mL plasma from six healthy subjects at pre-dose or at 2, 24 or 48 hours after a single oral dose of Compound 1-13A and in two healthy subjects dosed with placebo. On average, the amount of free/unbound LOXL2 was decreased by approximately 60% at 2 hours post-dosing in the subjects receiving 150 mg of Compound 1-13a (see FIG. 7).
Healthy human subjects (male and female) were dosed with compound 2 in solution. Blood samples were drawn at regular intervals and the plasma isolated and analyzed for compound 1-13a concentration as well as LOXL2 target engagement. Placebo data is the average of all the placebo subjects in the single dose study (n=10).

[3] = biological target: T1, LOXL2; assay: Western-based magnetic bead assay for free/unbound LOXL2 in human plasma pre-incubated with compound; format: binding; parameters: from tissue; host or cells: human plasma (donors / healthy volunteers); details: 10 mL human plasma, 2 hours at 37° C., capture with FG beads (Compound 1-7)
Procedure: Beads are resuspended to 10 mg/mL in Wash Buffer (20 mM Tris pH 8, 0.2% NP-40, 120 mM NaCl) and 1 mg beads (100 μL) are added to 1-10 mL of plasma, serum or other biological fluid containing LOXL2 and incubated at 37° C. for 0.5-2 hours with rotation. Beads are separated from plasma or other matrix using magnetic separation (for example, DynaMag™-15 Magnet) for 10 minutes at room temperature then the plasma/matrix carefully removed. The beads are resuspended in 1 mL Wash Buffer, vortexed and centrifuged at 4500×g for 5 minutes at room temperature to move all beads to the bottom of the tube. Beads are transferred to a 1.5 mL microfuge tube and washed 3 times with Wash Buffer using magnetic separation (for example, DynaMag™-2 Magnet). After the final wash, beads are resuspended in 40 μL of 1× BOLT® LDS Sample Buffer (Thermo Fisher, Waltham, Mass.) containing 1× BOLT® Sample Reducing Agent (Thermo Fisher, Waltham, Mass.) and incubated for 10 minutes at 90° C. Samples are centrifuged at 10,000×g for 1 minute then magnetically separated using a DynaMag™-2 Magnet for 2 minutes. 40 μL of each supernatant is loaded into one well of a 10 well 4-12% Bis-Tris Plus gel (Thermo Fisher, Waltham, Mass.) and the gels run for 45 minutes at 164 volts in 1×MES SDS Running Buffer (Thermo Fisher, Waltham, Mass.). […]

reduction of unbound/free LOXL2 captured by the biotinylated LOXL2 inhibitor [1]: 70-100% | Ave plasma Cmpd 2 conc ([2]; 150 mg single oral dose, 24 hour post-dose): BLOQ | concentration at 2 h ([2]; 150 mg single oral dose): 966 nM | concentration at 2 h ([2]; 450 mg single oral dose): 4380 nM | concentration at 24 h ([2]; 450 mg single oral dose, 24 hour post-dose): 3.5 nM | concentration at 2 h ([2]; 1000 mg single oral dose): 12900 nM | concentration at 24 h ([2]; 1000 mg single oral dose, 24 hour post-dose): 8 nM | decrease of free/unbound LOXL2 relative to vehicle control ([3]; 1 μM): approximately 63% | decrease of free/unbound LOXL2 relative to vehicle control ([3]; 10 μM): ~100%
Compound: NCc1cc(Oc2cccc(C(=O)N3C[C@@H](O)[C@H](F)C3)c2)nc(C(F)(F)F)c1 [Compound 1-13a, (R,R)-trans-(3-((4-(Aminomethyl)-6-(trifluoromethyl)pyridin-2-yl)oxy)phenyl)(3-fluoro-4-hydroxypyrrolidin-1-yl)methanone hydrochloride]
